# Source: patent publication US20230219912A1, “HALOGENATED BENZOTHIADIAZINES FOR THE TREATMENT OF CANCER” (BOARD OF REGENTS OF THE UNIVERSITY OF NEBRASKA, priority 2020, published 2023)
# “Also recorded” adds a separate entry of the source.
# How the values were obtained:
# [1] = test system: MDA-MB-468 triple negative breast cancer cells; assay: MTS cytotoxicity assay in MDA-MB-468 triple negative breast cancer cells; format: cell-based; settings: 10, 50 and 100 μM for 24, 48 and 72 hours, MTS
# Description: The assay was performed as follows.
# Derivatives were dosed at 10, 50 and 100 μM for 24, 48 and 72 hours and cell viability measured by MTS assay (FIG. 5).
# DYRK1A = DYRK1A (Homo sapiens, UniProt Q13627); settings: 100 μM; cited from earlier work
# MDA-MB-468 TNBC cells = settings: cited from earlier work
# [2] = test system: phosphorylated vascular endothelial growth factor receptor-2 (VEGFR2); assay: Western blot of pVEGFR2 in VEGF-treated HUVEC cells; format: cell-based, human; settings: 20 μM, VEGF 10 ng/mL, 5 min
# Description: Cells were treated with test compounds (20 μM) along with VEGF (10 ng/mL) for 5 min. The DMSO was used as a negative control, whereas DMSO+VEGF was used as a positive control. Cells were lysed using RIPA buffer (10 mmol/L Tris-HCl, 1 mmol/L EDTA, 0.5 mmol/L EGTA, 1% Triton X-100, 0.1% sodium deoxycholate, 0.1% SDS and 140 mmol/L NaCl), supplemented with protease and phosphatase inhibitors (Halt Protease and Phosphatase Inhibitor). Cell lysates were centrifuged, and the supernatants were mixed with appropriate amount of 5×SDS loading buffer. Proteins were resolved on polyacrylamide gel and transferred onto nitrocellulose/PVDF membrane, blocked for 1 hour with 10% milk block prepared in 0.1% Tween 20 in 1×PBS (PBST), and treated with pVEGFR2 primary antibody at 4° C. overnight. The membrane was washed thrice with PBST, 5 minutes each, and treated with secondary antibody for 1 hour. The membrane was further washed three times, 5 minutes each, with PBST and developed using chemiluminescence, and the bands were analyzed using densitometry.
compound,measurement,setting,value
"CC1=Nc2ccc(Cl)cc2S(=O)(=O)N1 [Diazoxide, 7-chloro-3-methyl-2H-1,2,4-benzothiadiazine 1,1-dioxide, reference compound]",effect on MDA-MB 468 TNBC cell viability,[1],no effect to reduce cell viability; also recorded: little activity to reduce TNBC cell viability
same,effect on MDA-MB 468 TNBC cell viability,[1]; listed as 9,no effect on cell viability
same,inhibition of DYRK1A,DYRK1A,7%
same,IC50,MDA-MB-468 TNBC cells,870 nM
same,attenuation of pVEGFR2 expression,[2],good activity to suppress pVEGFR2
